Source: patent US20230272012A1, “PEPTIDES AND METHODS OF USE” (REALTA LIFE SCIENCES, INC., priority 2020, published 2023)
“Also recorded” adds a separate entry of the source. Bridge positions count the residues as written; N and C are the ends. Square brackets hold non-standard residues; d marks the D form. Peptide text beside a SMILES is read from it. R8 = C=CCCCCCC[C@@](C)(N)C(=O)O; S5 = C=CCCC[C@](C)(N)C(=O)O; Sar = CNCC(=O)O

Assays:
[1] = ABO incompatibility hemolytic assay of complement activity (CH50-type); assay type: cell-based, human; settings: human; peptide 0.8 mg/ml (~0.5 mM); read-out: decrease of ABO hemolysis compared to PA-I8Sar
Procedure, shortened: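 Type AB human erythrocytes (5.0×10^7) incubated with 15% (final) type O human serum and 0.5 mM peptide in GVBS^++, 1 h at 37 °C. Hemolysis read as supernatant absorbance at 412 nm, expressed as percent of the serum-plus-RBC positive control; means of three independent experiments ±SEM.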

[2] = Total Antioxidant Capacity (TAC) assay; settings: highest peptide concentration 1.5 mM
Protocol: As previously reported, the TAC (Total Antioxidant Capacity) Assay (Cell Biolabs, Inc, San Diego, Calif.) was used to measure the antioxidant capacity of the PIC1 variants based on the reduction of copper (II) to copper (I). The kit protocol was performed per the manufacturer's recommendations.
The antioxidant properties for the PIC1 variants were evaluated in a Total Antioxidant Capacity (TAC) assay, as previously reported. Total antioxidant activity over a range of peptide concentrations were determined for the stapled and the D-amino acid peptides based on the PA-I8Sar and PA-C9Sar backbones (FIG. 8A-8D), with the activity of the highest peptide concentration reported (1.5 mM) (FIGS. 4A and B, respectively). […] For the D-amino acid variants, there was variation in the amount of antioxidant activity with the peptides having similar, slightly lower and slightly higher levels of total antioxidant capacity. In contrast, stapled peptides (PA-0135 through -0140) as well as combination of stapled and D-amino acid peptides had reduced total antioxidant capacity (FIG. 4A).

[3] = test system: human neutrophils; experiment: NETosis assay (free DNA, PicoGreen); assay type: cell-based; settings: peptide 2 mM; neutrophils stimulated with PMA and H2O2
Protocol: Free DNA as a marker for NET formation was measured by PicoGreen as previously described. Briefly, 2.0×10^6 human neutrophils in 96-well plates were stimulated with 12 nM PMA and 0.05% H2O2 in RPMI with or without the indicated peptide variants (2 mM) for 2.5 hr in a 37° C. humified incubator supplemented with 5% CO2, allowing NETosis to occur. Neutrophils in RPMI alone served as a negative control. Fifty units of […] (Fisher) were added to each well to allow for digestion of released extracellular DNA for 10 min at 37° C. The preparation was then aliquoted into an adjacent well and mixed 1:1 with prepared PICO green reagent (Fisher). The fluorescence was then quantified on a BioTek microplate reader at excitation 485 nm/emission 528 nm.

[4] = assay type: in vivo, rat; settings: IV in Wistar rats, 20, 200, 400 mg/kg; 0.5-1440 minute
Protocol: Male Wistar rats with indwelling jugular catheters were administered PA-0117, -0127, -0130, and -0133 with groups of three animals receiving 20, 200 and 400 mg/kg of the compound as a single, bolus, IV infusion. A control group of rats received an infusion of saline IV. At various time points after infusion (0.5, 2, 5, 20, 60, 120, 240, 480, 1440 minute) an aliquot of blood was drawn and plasma isolated and frozen at −70° C. pending analysis. Animals were sacrificed after the terminal blood draw and a gross necropsy performed.
PA-0117 could not be analyzed as no functional complement activity was obtained from the plasma samples. […] PA-0117 was analyzed in a C1q target acquisition assay (C1q binding assay) as described in Example 1 (FIG. 9). […] PA-0127 and -0130 levels were determined by coating the plate with the plasma samples and directly detecting the peptides by rabbit antibody raised against PA-0020 (peptide sequence […]; SEQ ID NO: 57) (FIGS. 10B and 11B). […] PA-0133 could not be detected by the available antibodies.
PA-0117: The hemolysis assay results were not useable (few pre-bleeds had any activity, and only a few other random samples had any complement activity). The PK assay for PA-0117 was performed by sandwich ELISA (FIG. 9). PA-0127: The results of the hemolysis assay are discussed herein (see also FIG. 10A). […] PA-0130: The results of the hemolysis assay are discussed herein (see also FIG. 11A). […] PA-0133: The results of the hemolysis assay are discussed herein (FIG. 12).

[5] = molecular target: T1, CTLA-4 (Homo sapiens, UniProt P16410); experiment: Peptide binding to immobilized CTLA-4, ELISA plate-based assay; settings: increasing amounts of peptide
T1 sequence (P16410 36-223): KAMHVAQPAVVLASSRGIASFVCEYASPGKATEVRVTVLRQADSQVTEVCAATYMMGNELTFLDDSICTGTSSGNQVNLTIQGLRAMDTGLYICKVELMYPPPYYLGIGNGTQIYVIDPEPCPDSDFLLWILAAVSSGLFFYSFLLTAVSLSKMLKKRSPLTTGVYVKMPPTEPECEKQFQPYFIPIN
Protocol: (§1) RLS-0117 was allowed to bind to immobilized CTLA-4, PD-1, PD-L1 on the surface of the plate. Bound C1q served as a positive and control for peptide binding. Increasing amounts of peptides were added to the plates followed by a rabbit polyclonal antibody that recognizes the peptides and then a secondary anti-rabbit antibody conjugated with HRP. The plate was then developed by addition of TMB as the substrate for the colorimetric assay.
(§2) The inventors further evaluated if RLS-0117 could bind to the well characterized checkpoint inhibitor, cytotoxic T-lymphocyte associated protein 4 (CTLA-4 aka CD152). […] Therefore, the pharmaceutical inhibition of CTLA-4 or its ligand has been considered a promising strategy by many cancer researchers and is a therapeutic target in cancer immunotherapy. To ascertain the ability of RLS-0117 to bind CTLA-4, a binding assay was performed in which these proteins were coated on a microtiter plate followed by incubation with increasing amounts of either […]. Plates coated with PD-1, PD-L1 and C1q served as a positive control […].

[6] = molecular target: PD-1 (Homo sapiens, UniProt Q15116); experiment: Peptide binding to immobilized PD-1, ELISA plate-based assay; settings: increasing amounts of peptide
Protocol: as §1, §2

Chain of PD-1 (Q15116 25-288): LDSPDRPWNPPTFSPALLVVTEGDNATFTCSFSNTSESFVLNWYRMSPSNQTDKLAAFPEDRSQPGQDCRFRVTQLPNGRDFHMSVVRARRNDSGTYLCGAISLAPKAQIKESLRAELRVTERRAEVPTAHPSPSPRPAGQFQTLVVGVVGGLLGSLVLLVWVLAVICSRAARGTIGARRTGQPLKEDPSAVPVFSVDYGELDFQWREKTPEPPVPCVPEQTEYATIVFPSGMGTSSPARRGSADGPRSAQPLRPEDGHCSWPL

## CC[C@H](C)[C@H](N)C(=O)N[C@]1(C)CCCCCCC=CCCC[C@@](C)(C(=O)N[C@@H](CS)C(=O)N[C@@H](CCC(N)=O)C(=O)N[C@@H](CCC(=O)O)C(=O)N[C@@H](CCCNC(=N)N)C(=O)N[C@@H](C)C(=O)N[C@@H](C)C(=O)O)NC(=O)CN(C)C(=O)[C@@H]2CCCN2C(=O)[C@H](CCC(=O)O)NC(=O)[C@H](CC(C)C)NC(=O)[C@H]([C@@H](C)CC)NC(=O)[C@H](CC(C)C)NC1=O [PA-0115, IR8LILEP(Sar)S5CQERAA] (H-I[R8]LILEP[Sar][S5]CQERAA-OH; staple 2-9)
[1]
  decrease in ABO hemolysis compared to reference peptide at 1 h: 30%
[2]
  total antioxidant capacity compared with PA-I8Sar: much less antioxidant activity
[2]; listed as PA-0015
  total antioxidant capacity compared with PA-I8Sar: reduction in total antioxidant capacity

## CC[C@H](C)[C@H](N)C(=O)N[C@@H](C)C(=O)N[C@@H](CC(C)C)C(=O)N[C@H](C(=O)N[C@@H](CC(C)C)C(=O)N[C@@H](CCC(=O)O)C(=O)N1CCC[C@H]1C(=O)N(C)CC(=O)N[C@@H](CS)C(=O)N[C@@]1(C)CCCC=CCCC[C@@](C)(C(=O)N[C@@H](C)C(=O)O)NC(=O)[C@H](CCCNC(=N)N)NC(=O)[C@H](CCC(=O)O)NC(=O)[C@H](CCC(N)=O)NC1=O)[C@@H](C)CC [PA-0117, IALILEP(Sar)CS5QERS5A] (H-IALILEP[Sar]C[S5]QER[S5]A-OH; staple 10-14)
[1]
  decrease in ABO hemolysis compared to reference peptide at 1 h: 25%
[3]
  reduction of free DNA (marker of NETosis): did not reduce levels of free DNA; also recorded: did not show a reduction in free DNA
[4]
  peptide level in plasma over time: detected at early time points at each dose and decreased over time
[5]
  binding to CTLA-4: bound CTLA-4
[6]
  binding to PD-1: dose-dependent binding
